According to ChEMBL document CHEMBL6087436, “The novel β-hairpin antimicrobial peptide D-G(RF)3 demonstrates exceptional antibacterial efficacy” (Eur J Med Chem, 2025):
In brackets after ≈: the same amount, converted by molar mass. Activity calls are given as the source filed them. No cut-off for these calls is given here.

What was measured:
Staphylococcus aureus [1] = experiment: Inhibition of biofilm formation in Staphylococcus aureus ATCC 25923 incubated for 24 hrs by crystal violet staining based analysis; format: functional, organism-based; conditions: dose 1-32 µM
Pseudomonas aeruginosa [2] = experiment: Inhibition of biofilm formation in Pseudomonas aeruginosa ATCC 27853 incubated for 24 hrs by crystal violet staining based analysis; format: functional, organism-based; conditions: dose 1-32 µM
Klebsiella pneumoniae [3] = experiment: In vivo antibacterial activity against Klebsiella pneumoniae ATCC 700603 infected in male Balb/c mouse lung infection model assessed as reduction in alveoli expansion at 10 mg/kg, ip measured after 24 hrs by H and E staining based analysis; format: functional, organism-based
Klebsiella pneumoniae [4] = experiment: Synergistic antibacterial activity against Klebsiella pneumoniae assessed as fractional inhibitory concentration index in presence of rifampin incubated for 18 hrs by checkerboard method; format: functional
Pseudomonas aeruginosa [5] = experiment: Antibacterial activity against Pseudomonas aeruginosa ATCC 27853 in presence of 1 mM MgCl2; format: functional, organism-based
Pseudomonas aeruginosa [6] = experiment: Antibacterial activity against Pseudomonas aeruginosa ATCC 27853 assessed as inhibition of bacterial growth incubated for 18 hrs by microbroth dilution assay; format: functional
Staphylococcus aureus [7] = experiment: Antibacterial activity against Staphylococcus aureus ATCC 25923 in presence of 150 mM NaCl; format: functional, organism-based
Staphylococcus aureus [8] = experiment: Antibacterial activity against Staphylococcus aureus ATCC 25923 in presence of 1 mM MgCl2; format: functional, organism-based
Staphylococcus aureus [9] = experiment: Antibacterial activity against Staphylococcus aureus ATCC 25923 in presence of 8 uM ZnCl2; format: functional, organism-based
Staphylococcus aureus [10] = experiment: Antibacterial activity against Staphylococcus aureus ATCC 25923 in presence of 4.5 mM KCl; format: functional, organism-based
Klebsiella pneumoniae [11] = experiment: Synergistic antibacterial activity against Klebsiella pneumoniae assessed as fractional inhibitory concentration index in presence of polymyxin B incubated for 18 hrs by checkerboard method; format: functional
Klebsiella pneumoniae [12] = experiment: Inhibition of biofilm formation in Klebsiella pneumoniae ATCC 700603 incubated for 24 hrs by crystal violet staining based analysis; format: functional, organism-based; conditions: dose 1-32 µM
Staphylococcus aureus [13] = experiment: Antibacterial activity against Staphylococcus aureus ATCC 25923 in presence of 4 uM FeCl3; format: functional, organism-based
Klebsiella pneumoniae [14] = experiment: Antibacterial activity against Klebsiella pneumoniae ATCC 700603 assessed as inhibition of bacterial growth incubated for 18 hrs by microbroth dilution assay; format: functional
Staphylococcus aureus [15] = experiment: Antibacterial activity against Staphylococcus aureus ATCC 25923 in presence of 2 mM CaCl2; format: functional, organism-based
Klebsiella pneumoniae [16] = experiment: In vivo antibacterial activity against Klebsiella pneumoniae ATCC 700603 infected in male Balb/c mouse lung infection model assessed as reduction in pulmonary bacterial load at 10 mg/kg, ip measured after 24 hrs (reference value: 3.05 x 10^9 CFU/g); format: functional
Escherichia coli [17] = experiment: Antibacterial activity against Escherichia coli ATCC 25922 assessed as inhibition of bacterial growth incubated for 18 hrs by microbroth dilution assay; format: functional
Cell membrane [18] = experiment: Induction of Cytoplasmic membrane depolarization in Staphylococcus aureus measured for every 10 mins by DiSC3(5) dye based fluorescence method
Cell membrane [19] = experiment: Induction of Outer membrane permeabilization in Escherichia coli assessed as increase in fluorescence intensity incubated for 1 min by NPN-dye based fluorescence analysis; format: subcellular
Staphylococcus aureus [20] = experiment: Synergistic antibacterial activity against Staphylococcus aureus assessed as fractional inhibitory concentration index in presence of bacitracin incubated for 18 hrs by checkerboard method; format: functional
[21] = Hemolytic activity in Kunming mouse erythrocytes assessed as hemolysis incubated for 1 hr by multimode reader analysis; format: toxicity, cell-based; conditions: erythrocyte
Pseudomonas aeruginosa [22] = experiment: Antibacterial activity against Pseudomonas aeruginosa ATCC 27853 in presence of 2 mM CaCl2; format: functional, organism-based
Cell membrane [23] = experiment: Induction of cell membrane permeability in Escherichia coli assessed as bacterial breakage at 2 times MIC by SEM analysis; format: subcellular
Klebsiella pneumoniae [24] = experiment: In vivo antibacterial activity against Klebsiella pneumoniae ATCC 700603 infected in male Balb/c mouse lung infection model assessed as reduction in serous exudation of alveolar cavities at 10 mg/kg, ip measured after 24 hrs by H and E staining based analysis; format: functional, organism-based
Escherichia coli [25] = experiment: Synergistic antibacterial activity against Escherichia coli assessed as fractional inhibitory concentration index in presence of rifampin incubated for 18 hrs by checkerboard method; format: functional
[26] = Hemolytic activity in Kunming mouse erythrocytes assessed as hemolytic rate at 256 uM incubated for 1 hr by multimode reader analysis relative to control; format: toxicity, cell-based, Erythrocyte; conditions: read-out: Activity
Pseudomonas aeruginosa [27] = experiment: Antibacterial activity against Pseudomonas aeruginosa ATCC 27853 in presence of 4 uM FeCl3; format: functional, organism-based
Klebsiella pneumoniae [28] = experiment: In vivo antibacterial activity against Klebsiella pneumoniae ATCC 700603 infected in male Balb/c mouse lung infection model assessed as reduction in pulmonary bacterial load at 5 mg/kg, ip measured after 24 hrs (reference value: 3.05 x 10^9 CFU/g); format: functional
Klebsiella pneumoniae [29] = experiment: In vivo antibacterial activity against Klebsiella pneumoniae ATCC 700603 infected in male Balb/c mouse lung infection model assessed as reduction in crumpling alveoli at 10 mg/kg, ip measured after 24 hrs by H and E staining based analysis; format: functional, organism-based
[30] = Stability of compound in mouse plasma assessed as degradation of compound by measuring half life incubated for 48 hrs by RP-HPLC analysis; format: ADME, cell-free
Pseudomonas aeruginosa [31] = experiment: Synergistic antibacterial activity against Pseudomonas aeruginosa assessed as fractional inhibitory concentration index in presence of imipenem incubated for 18 hrs by checkerboard method; format: functional
Klebsiella pneumoniae [32] = experiment: Synergistic antibacterial activity against Klebsiella pneumoniae assessed as fractional inhibitory concentration index in presence of kanamycin incubated for 18 hrs by checkerboard method; format: functional
Pseudomonas aeruginosa [33] = experiment: Antibacterial activity against Pseudomonas aeruginosa ATCC 27853 in presence of 4.5 mM KCl; format: functional, organism-based
Pseudomonas aeruginosa [34] = experiment: Induction of drug resistance in Pseudomonas aeruginosa ATCC 27853 assessed as fold increase in MIC incubated for 24 hrs and measured under 40 passages; format: functional
Escherichia coli [35] = experiment: Synergistic antibacterial activity against Escherichia coli assessed as fractional inhibitory concentration index in presence of polymyxin B incubated for 18 hrs by checkerboard method; format: functional
[36] = tested on: Staphylococcus epidermidis; experiment: Antibacterial activity against Staphylococcus epidermidis ATCC 12228 assessed as inhibition of bacterial growth incubated for 18 hrs by microbroth dilution assay; format: functional
Cell membrane [37] = experiment: Induction of cell membrane permeability in Escherichia coli assessed as cluster formation at 2 times MIC by SEM analysis; format: subcellular
Pseudomonas aeruginosa [38] = experiment: Antibacterial activity against Pseudomonas aeruginosa ATCC 27853 in presence of 8 uM ZnCl2; format: functional, organism-based
Staphylococcus aureus [39] = experiment: Antibacterial activity against Staphylococcus aureus ATCC 25923 assessed as inhibition of bacterial growth incubated for 18 hrs by microbroth dilution assay; format: functional
[40] = Acute toxicity in male balb/c mouse assessed as lethal dose at ip administration; format: organism-based; conditions: in vivo
Cell membrane [41] = experiment: Induction of Inner membrane permeabilization in Escherichia coli ML-35 ATCC […] measured every 5 mins for 120 mins by ONPG dye based assay; format: subcellular
Staphylococcus aureus [42] = experiment: Antibacterial activity against Staphylococcus aureus ATCC 25923 in presence of 6 uM NH4Cl; format: functional, organism-based
Escherichia coli [43] = experiment: Inhibition of biofilm formation in Escherichia coli ATCC 25922 at >= 2 uM incubated for 24 hrs by crystal violet staining based analysis; format: functional, organism-based
Bacillus subtilis = experiment: Antibacterial activity against Bacillus subtilis ATCC 23857 assessed as inhibition of bacterial growth incubated for 18 hrs by microbroth dilution assay; format: functional

N=C(N)NCCC[C@H](NC(=O)CNC(=O)[C@H]1CCCN1C(=O)[C@H](CCCNC(=N)N)NC(=O)[C@H](Cc1ccccc1)NC(=O)[C@H](CCCNC(=N)N)NC(=O)[C@H](Cc1ccccc1)NC(=O)[C@H](CCCNC(=N)N)NC(=O)[C@@H](N)Cc1ccccc1)C(=O)N[C@@H](Cc1ccccc1)C(=O)N[C@@H](CCCNC(=N)N)C(=O)N[C@@H](Cc1ccccc1)C(=O)N[C@@H](CCCNC(=N)N)C(=O)N[C@@H](Cc1ccccc1)C(N)=O
inhibition (Staphylococcus aureus [1]): Dose-dependent-effect
inhibition (Pseudomonas aeruginosa [2]): Dose-dependent-effect
Activity (Klebsiella pneumoniae [3]): Active
fractional inhibitory concentration index (FICI) (Klebsiella pneumoniae [4]): 0.313
Activity (Pseudomonas aeruginosa [5]): Active
MIC (Pseudomonas aeruginosa [6]): 4 µM (≈ 7.97 µg/mL)
Activity (Staphylococcus aureus [7]): Active
Activity (Staphylococcus aureus [8]): Active
Activity (Staphylococcus aureus [9]): Active
Activity (Staphylococcus aureus [10]): Active
fractional inhibitory concentration index (FICI) (Klebsiella pneumoniae [11]): 0.188
inhibition (Klebsiella pneumoniae [12]): Dose-dependent-effect
Activity (Staphylococcus aureus [13]): Active
MIC (Klebsiella pneumoniae [14]): 8 µM (≈ 15.9 µg/mL)
Activity (Staphylococcus aureus [15]): Active
Activity (Klebsiella pneumoniae [16]): 4.93 10^7CFU/g
MIC (Escherichia coli [17]): 4 µM (≈ 7.97 µg/mL)
Activity (Cell membrane [18]): Dose-dependent-effect
Activity (Cell membrane [19]): Active
fractional inhibitory concentration index (FICI) (Staphylococcus aureus [20]): 0.375
MHC10 [21]: 512 µM
Activity (Pseudomonas aeruginosa [22]): Active
Activity (Cell membrane [23]): Active
Activity (Klebsiella pneumoniae [24]): Active
fractional inhibitory concentration index (FICI) (Escherichia coli [25]): 0.313
hemolysis at 1 h, 256 µM [26]: 9.7%
Activity (Pseudomonas aeruginosa [27]): Active
Activity (Klebsiella pneumoniae [28]): 1.52 10^8CFU/g
Activity (Klebsiella pneumoniae [29]): Active
half-life [30]: 3.03 h
fractional inhibitory concentration index (FICI) (Pseudomonas aeruginosa [31]): 0.313
fractional inhibitory concentration index (FICI) (Klebsiella pneumoniae [32]): 0.313
Activity (Pseudomonas aeruginosa [33]): Active
fold change (FC) (Pseudomonas aeruginosa [34]): <4
fractional inhibitory concentration index (FICI) (Escherichia coli [35]): 0.25
MIC [36]: 2 µM (≈ 3.98 µg/mL)
Activity (Cell membrane [37]): Active
Activity (Pseudomonas aeruginosa [38]): Active
MIC (Staphylococcus aureus [39]): 4 µM (≈ 7.97 µg/mL)
LD50 [40]: 81.3 mg/kg
Activity (Cell membrane [41]): Dose-dependent-effect
Activity (Staphylococcus aureus [42]): Active
inhibition (Escherichia coli [43]): Active
MIC (Bacillus subtilis): 4 µM (≈ 7.97 µg/mL)

N=C(N)NCCC[C@@H](NC(=O)CNC(=O)[C@H]1CCCN1C(=O)[C@@H](CCCNC(=N)N)NC(=O)[C@@H](Cc1ccccc1)NC(=O)[C@@H](CCCNC(=N)N)NC(=O)[C@@H](Cc1ccccc1)NC(=O)[C@@H](CCCNC(=N)N)NC(=O)[C@H](N)Cc1ccccc1)C(=O)N[C@H](Cc1ccccc1)C(=O)N[C@H](CCCNC(=N)N)C(=O)N[C@H](Cc1ccccc1)C(=O)N[C@H](CCCNC(=N)N)C(=O)N[C@H](Cc1ccccc1)C(N)=O
inhibition (Staphylococcus aureus [1]): Dose-dependent-effect
inhibition (Pseudomonas aeruginosa [2]): Dose-dependent-effect
Activity (Klebsiella pneumoniae [3]): Active
fractional inhibitory concentration index (FICI) (Klebsiella pneumoniae [4]): 0.313
Activity (Pseudomonas aeruginosa [5]): Active
MIC (Pseudomonas aeruginosa [6]): 4 µM (≈ 7.97 µg/mL)
Activity (Staphylococcus aureus [7]): Active
Activity (Staphylococcus aureus [8]): Active
Activity (Staphylococcus aureus [9]): Active
Activity (Staphylococcus aureus [10]): Active
fractional inhibitory concentration index (FICI) (Klebsiella pneumoniae [11]): 0.188
inhibition (Klebsiella pneumoniae [12]): Dose-dependent-effect
Activity (Staphylococcus aureus [13]): Active
MIC (Klebsiella pneumoniae [14]): 8 µM (≈ 15.9 µg/mL)
Activity (Staphylococcus aureus [15]): Active
Activity (Klebsiella pneumoniae [16]): 2.48 10^7CFU/g
MIC (Escherichia coli [17]): 8 µM (≈ 15.9 µg/mL)
Activity (Cell membrane [18]): Dose-dependent-effect
Activity (Cell membrane [19]): Active
fractional inhibitory concentration index (FICI) (Staphylococcus aureus [20]): 0.375
MHC10 [21]: > 256 µM
Activity (Pseudomonas aeruginosa [22]): Active
Activity (Cell membrane [23]): Active
Activity (Klebsiella pneumoniae [24]): Active
fractional inhibitory concentration index (FICI) (Escherichia coli [25]): 0.25
hemolysis at 1 h, 256 µM [26]: 4.3%
Activity (Pseudomonas aeruginosa [27]): Active
Activity (Klebsiella pneumoniae [28]): 5.98 10^7CFU/g
Activity (Klebsiella pneumoniae [29]): Active
half-life [30]: > 48 h
fractional inhibitory concentration index (FICI) (Pseudomonas aeruginosa [31]): 0.375
fractional inhibitory concentration index (FICI) (Klebsiella pneumoniae [32]): 0.375
Activity (Pseudomonas aeruginosa [33]): Active
fold change (FC) (Pseudomonas aeruginosa [34]): <4
fractional inhibitory concentration index (FICI) (Escherichia coli [35]): 0.188
MIC [36]: 2 µM (≈ 3.98 µg/mL)
Activity (Cell membrane [37]): Active
Activity (Pseudomonas aeruginosa [38]): Active
MIC (Staphylococcus aureus [39]): 4 µM (≈ 7.97 µg/mL)
LD50 [40]: 45.3 mg/kg
Activity (Cell membrane [41]): Dose-dependent-effect
Activity (Staphylococcus aureus [42]): Active
inhibition (Escherichia coli [43]): Active
MIC (Bacillus subtilis): 2 µM (≈ 3.98 µg/mL)
